Data taken from ChEMBL document CHEMBL5346921, “Discovery of novel benzamide derivatives bearing benzamidophenyl and phenylacetamidophenyl scaffolds as potential antitumor agents via targeting PARP-1” (Eur J Med Chem, 2023).
The source made the active and inactive calls. No cut-off for these calls is given here.

How the values were obtained:
[1] = test system: HCT-116; test: Induction of cell cycle arrest in human HCT-116 cells assessed as accumulation of cells at G0/G1 phase at 7.5 uM incubated for 48 hrs by PI staining based flow cytometry (reference value: 62.1%); type: functional
[2] = test system: HCT-116; test: Inhibition of colony formation in human HCT-116 cells at 3 uM pretreated for 48 hrs followed by replacement of fresh medium and measured every 3 days by crystal violet staining based analysis; type: functional
[3] = test system: HCT-116; test: Induction of cell cycle arrest in human HCT-116 cells assessed as accumulation of cells at S phase at 1.5 uM incubated for 48 hrs by PI staining based flow cytometry (reference value: 14.5%); type: functional
[4] = Selectivity index, ratio of IC50 for cytotoxicity against human NCM460 cells to IC50 for antiproliferative activity against human HCT-116 cells; type: toxicity, cell-based; conditions: NCM460 cells and HCT-116 cells, read-out: Ratio IC50
[5] = test system: HCT-116; test: Inhibition of cell migration in human HCT-116 cells at 3 uM incubated for 48 hrs by wound healing assay; type: functional
[6] = test system: HCT-116; test: Induction of apoptosis in human HCT-116 cells assessed as viable cells at 7.5 uM incubated for 72 hrs by AnnexinV-FITC/PI staining based analysis (reference value: 98.95%); type: functional; conditions: read-out: Activity
[7] = test system: HCT-116; test: Induction of apoptosis in human HCT-116 cells assessed as increase in Bax protein expression incubated for 48 hrs by western blot analysis; type: functional, cell-based; conditions: dose 0.3-3 µM
[8] = Cytotoxicity against human NCM460 cells assessed as reduction in cell viability incubated for 48 hrs by MTT assay; type: toxicity, cell-based
[9] = test system: HCT-116; test: Induction of cell cycle arrest in human HCT-116 cells assessed as accumulation of cells at G2/M phase at 0.3 uM incubated for 48 hrs by PI staining based flow cytometry (reference value: 24.7%); type: functional
[10] = test system: HCT-116; test: Induction of apoptosis in human HCT-116 cells assessed as late apoptotic cells at 0.3 uM incubated for 48 hrs by AnnexinV-FITC/PI staining based flow cytometry (reference value: 0%); type: functional
[11] = test system: HCT-116; test: Inhibition of cell migration in human HCT-116 cells at 0.3 uM incubated for 24 hrs by wound healing assay; type: functional
[12] = test system: HCT-116; test: Induction of cell cycle arrest in human HCT-116 cells assessed as accumulation of cells at G0/G1 phase at 0.3 uM incubated for 48 hrs by PI staining based flow cytometry (reference value: 62.1%); type: functional
[13] = test system: HCT-116; test: Induction of cell cycle arrest in human HCT-116 cells assessed as accumulation of cells at S phase at 0.3 uM incubated for 48 hrs by PI staining based flow cytometry (reference value: 14.5%); type: functional
[14] = test system: HCT-116; test: Induction of cell cycle arrest in human HCT-116 cells assessed as accumulation of cells at G0/G1 phase at 0.3 uM incubated for 72 hrs by PI staining based flow cytometry (reference value: 57.2%); type: functional
[15] = test system: SW480; test: cells; conditions: Homo sapiens, SW480, 48 h
Description: Antiproliferative activity against human SW480 cells assessed as reduction in cell viability incubated for 48 hrs by MTT assay

[16] = test system: HCT-116; test: Induction of apoptosis in human HCT-116 cells assessed as viable cells at 1.5 uM incubated for 48 hrs by AnnexinV-FITC/PI staining based flow cytometry (reference value: 97.89%); type: functional; conditions: read-out: Activity
[17] = test system: HCT-116; test: Induction of apoptosis in human HCT-116 cells assessed as viable cells at 7.5 uM incubated for 48 hrs by AnnexinV-FITC/PI staining based flow cytometry (reference value: 97.89%); type: functional; conditions: read-out: Activity
[18] = test system: HCT-116; test: Inhibition of cell migration in human HCT-116 cells at 1 uM incubated for 48 hrs by wound healing assay; type: functional
[19] = test system: HCT-116; test: Inhibition of colony formation in human HCT-116 cells pretreated for 48 hrs followed by replacement of fresh medium and measured every 3 days by crystal violet staining based analysis; type: functional, cell-based; conditions: dose 0.3-3 µM
[20] = test system: HCT-116; test: Induction of mitochondrial membrane potential loss in human HCT-116 cells assessed as JC-1 aggregate level by measuring red fluorescence intensity at 1 uM incubated for 48 hrs by JC-1 staining based flow cytometry (reference value: 96.72%); type: functional
[21] = test system: HCT-116; test: Induction of apoptosis in human HCT-116 cells assessed as necrotic cells at 0.3 uM incubated for 72 hrs by AnnexinV-FITC/PI staining based analysis (reference value: 0%); type: functional
[22] = test system: HCT-116; test: Induction of mitochondrial membrane potential loss in human HCT-116 cells assessed as JC-1 monomer level by measuring green fluorescence intensity at 3 uM incubated for 48 hrs by JC-1 staining based flow cytometry (reference value: 3.28%); type: functional
[23] = test system: HCT-116; test: Induction of mitochondrial membrane potential loss in human HCT-116 cells assessed as JC-1 monomer level by measuring green fluorescence intensity at 1 uM incubated for 48 hrs by JC-1 staining based flow cytometry (reference value: 3.28%); type: functional
[24] = test system: HCT-116; test: Induction of DNA double-strand breaks in human HCT-116 cells assessed as gammaH2AX accumulation incubated for 48 hrs by western blot analysis; type: functional, cell-based; conditions: dose 0.3-3 µM
[25] = test system: HCT-116; test: Induction of apoptosis in human HCT-116 cells assessed as early apoptotic cells at 0.3 uM incubated for 48 hrs by AnnexinV-FITC/PI staining based flow cytometry (reference value: 2.11%); type: functional
[26] = test system: HCT-116; test: Induction of mitochondrial membrane potential loss in human HCT-116 cells assessed as JC-1 aggregate level by measuring red fluorescence intensity at 3 uM incubated for 48 hrs by JC-1 staining based flow cytometry (reference value: 96.72%); type: functional
[27] = test system: HCT-116; test: Induction of apoptosis in human HCT-116 cells assessed as early apoptotic cells at 7.5 uM incubated for 48 hrs by AnnexinV-FITC/PI staining based flow cytometry (reference value: 2.11%); type: functional
[28] = target: Poly [ADP-ribose] polymerase 2 (Homo sapiens, UniProt Q9UGN5); test: Inhibition of human PARP-2 by ELISA
[29] = test system: HCT-116; test: Induction of apoptosis in human HCT-116 cells assessed as necrotic cells at 1.5 uM incubated for 72 hrs by AnnexinV-FITC/PI staining based analysis (reference value: 0%); type: functional
[30] = test system: HCT-116; test: Induction of cell cycle arrest in human HCT-116 cells assessed as accumulation of cells at G2/M phase at 1.5 uM incubated for 48 hrs by PI staining based flow cytometry (reference value: 24.7%); type: functional
[31] = test system: HCT-116; test: Induction of DNA double strand breaks in human HCT-116 cells assessed as gammaH2AX accumulation at 3 uM incubated for 48 hrs by immunofluorescence analysis; type: functional, cell-based
[32] = test system: HCT-116; test: Induction of apoptosis in human HCT-116 cells assessed as late apoptotic cells at 1.5 uM incubated for 72 hrs by AnnexinV-FITC/PI staining based analysis (reference value: 0%); type: functional
[33] = test system: HCT-116; test: Induction of apoptosis in human HCT-116 cells assessed as early apoptotic cells at 1.5 uM incubated for 48 hrs by AnnexinV-FITC/PI staining based flow cytometry (reference value: 2.11%); type: functional
[34] = test system: HCT-116; test: Inhibition of cell migration in human HCT-116 cells at 0.3 uM incubated for 48 hrs by wound healing assay; type: functional
[35] = test system: HCT-116; test: Induction of cell cycle arrest in human HCT-116 cells assessed as accumulation of cells at S phase at 1.5 uM incubated for 72 hrs by PI staining based flow cytometry (reference value: 16.7%); type: functional

Chain of Poly [ADP-ribose] polymerase 2 (Q9UGN5 whole entry): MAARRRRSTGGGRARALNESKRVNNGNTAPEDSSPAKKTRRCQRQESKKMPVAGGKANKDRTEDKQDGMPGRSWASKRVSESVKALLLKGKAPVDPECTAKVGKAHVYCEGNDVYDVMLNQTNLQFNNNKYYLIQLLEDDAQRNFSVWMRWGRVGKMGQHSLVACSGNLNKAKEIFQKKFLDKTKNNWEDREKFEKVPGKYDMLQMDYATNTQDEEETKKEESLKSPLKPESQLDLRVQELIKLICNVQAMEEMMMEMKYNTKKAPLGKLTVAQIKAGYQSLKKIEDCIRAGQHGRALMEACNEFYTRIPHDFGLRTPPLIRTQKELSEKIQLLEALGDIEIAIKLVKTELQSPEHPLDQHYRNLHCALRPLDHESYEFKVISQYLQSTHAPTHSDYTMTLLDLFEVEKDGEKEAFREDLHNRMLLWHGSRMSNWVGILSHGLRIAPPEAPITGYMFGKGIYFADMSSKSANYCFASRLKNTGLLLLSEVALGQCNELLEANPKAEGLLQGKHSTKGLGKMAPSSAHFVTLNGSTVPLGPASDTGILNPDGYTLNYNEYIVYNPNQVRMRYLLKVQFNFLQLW

- IC50 [15]: 33.7 µM
- IC50 [28]: 0.00234 µM
Structure (SMILES): NC(=O)c1ccccc1OCc1cccc(NC(=O)c2ccc(Br)cc2)c1
- Activity [1]: 49.7%
- inhibition at 3 µM [2]: 100%
- Activity [3]: 12.5%
- selectivity ratio [4]: 1640
- inhibition at 3 µM [5]: 43.2%
- viability at 7.5 µM [6]: 20.5%
- Activity [7]: Dose-Dependent Effect
- IC50 at 48 h [8]: 487 µM
- Activity [9]: 28.6%
- Activity [10]: 0.25%
- inhibition at 0.3 µM [11]: 12.4%
- Activity [12]: 60.7%
- Activity [13]: 11%
- Activity [14]: 46.9%
- viability at 1.5 µM [16]: 73%
- viability at 7.5 µM [17]: 57.4%
- inhibition at 1 µM [18]: 36.3%
- inhibition [19]: Dose-Dependent Effect
- Activity [20]: 85.84%
- Activity [21]: 0%
- Activity [22]: 50.03%
- Activity [23]: 14.16%
- Activity [24]: Dose-Dependent Effect
- Activity [25]: 9.12%
- Activity [26]: 49.97%
- Activity [27]: 40.9%
- Activity [29]: 0.01%
- Activity [30]: 33%
- Activity [31]: Active
- Activity [32]: 0.26%
- Activity [33]: 22.69%
- inhibition at 0.3 µM [34]: 30.5%
- Activity [35]: 15.6%
